Results published in patent publication US4508663A, “Process for preparing thiosulfenamide derivatives of N-phosphonomethylglycinonitriles” (Monsanto Company, priority 1983, dated 1985).

Assays:
Assay in all cases: post-emergence herbicidal activity, greenhouse
Assay type in all cases: in vivo
[1] = test system: Soybean; conditions: Table II
Outline: (§1)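 Plants grown from seed or perennial propagules in greenhouse soil pans were sprayed at two to three weeks with compound solution or suspension containing about 0.4% emulsifier, at the stated application rates. Injury relative to untreated controls was scored at approximately two and four weeks after treatment on a post-emergence activity index.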

[2] = test system: Barnyardgrass
Outline: as §1

[3] = test system: Hemp Sesbania; conditions: Table II
Outline: as §1

[4] = test system: Morningglory
Outline: as §1

[5] = test system: Downy Brome
Outline: as §1

[6] = test system: Rice; conditions: Table II
Outline: as §1

[7] = test system: Panicum Spp; conditions: Table II
Outline: as §1

[8] = test system: Yellow Nutsedge; conditions: Table I, 4 WAT
Outline: as §1

[9] = test system: Sorghum; conditions: Table II
Outline: as §1

[10] = test system: Quackgrass; conditions: Table I, 4 WAT
Outline: as §1

[11] = test system: Johnsongrass; conditions: Table I, 4 WAT
Outline: as §1

[12] = test system: Velvetleaf
Outline: as §1

[13] = test system: Crabgrass; conditions: Table II
Outline: as §1

[14] = test system: Smartweed; conditions: Table I, 4 WAT
Outline: as §1

[15] = test system: Cocklebur
Outline: as §1

[16] = test system: Canada Thistle; conditions: Table I, 4 WAT
Outline: as §1

[17] = test system: Lambsquarters
Outline: as §1

[18] = test system: Sugar Beet; conditions: Table II
Outline: as §1

[19] = test system: Wheat; conditions: Table II
Outline: as §1

[20] = test system: Wild Buckwheat; conditions: Table II
Outline: as §1

Measured: post-emergence herbicidal activity index

CC(C)SSN(CC#N)CP(=O)(Oc1ccccc1)Oc1ccccc1 [VI, Phosphonic acid, [[(cyanomethyl)[(1-methylethyl)-dithio]amino]methyl]-, diphenyl ester]
0 (0-24% control): [1]; 2 WAT, 1.12 kg/h | [1]; 4 WAT, 0.28 kg/h | [1]; 4 WAT, 1.12 kg/h | [2]; Table II, 4 WAT, 0.28 kg/h | [2]; Table II, 4 WAT, 1.12 kg/h | [3]; 2 WAT, 1.12 kg/h | [3]; 4 WAT, 0.28 kg/h | [3]; 4 WAT, 1.12 kg/h | [4]; Table II, 4 WAT, 0.28 kg/h | [4]; Table II, 4 WAT, 1.12 kg/h | [5]; Table II, 2 WAT, 1.12 kg/h | [5]; Table II, 4 WAT, 0.28 kg/h | [5]; Table II, 4 WAT, 1.12 kg/h | [6]; 2 WAT, 1.12 kg/h | [6]; 2 WAT, 5.6 kg/h | [6]; 4 WAT, 0.28 kg/h | [6]; 4 WAT, 1.12 kg/h | [6]; 4 WAT, 5.6 kg/h | [7]; 2 WAT, 1.12 kg/h | [7]; 4 WAT, 0.28 kg/h | [7]; 4 WAT, 1.12 kg/h | [8]; 5.6 kg/h | [9]; 4 WAT, 0.28 kg/h | [10]; 5.6 kg/h | [12]; Table II, 2 WAT, 1.12 kg/h | [12]; Table II, 4 WAT, 0.28 kg/h | [15]; Table II, 4 WAT, 0.28 kg/h | [17]; Table II, 4 WAT, 0.28 kg/h | [18]; 2 WAT, 1.12 kg/h | [18]; 2 WAT, 5.6 kg/h | [18]; 4 WAT, 0.28 kg/h | [18]; 4 WAT, 1.12 kg/h | [19]; 4 WAT, 0.28 kg/h | [19]; 4 WAT, 1.12 kg/h | [20]; 2 WAT, 1.12 kg/h | [20]; 4 WAT, 0.28 kg/h | [20]; 4 WAT, 1.12 kg/h
3 (75-99% control): [2]; Table II, 4 WAT, 5.6 kg/h | [5]; Table I, 4 WAT, 11.2 kg/h | [8]; 11.2 kg/h | [9]; 4 WAT, 5.6 kg/h | [11]; 5.6 kg/h | [11]; 11.2 kg/h | [13]; 2 WAT, 5.6 kg/h | [13]; 4 WAT, 5.6 kg/h | [15]; Table II, 4 WAT, 5.6 kg/h | [17]; Table I, 4 WAT, 5.6 kg/h | [17]; Table II, 2 WAT, 1.12 kg/h | [17]; Table II, 2 WAT, 5.6 kg/h | [17]; Table II, 4 WAT, 1.12 kg/h | [17]; Table II, 4 WAT, 5.6 kg/h
1 (25-49% control): [1]; 2 WAT, 5.6 kg/h | [1]; 4 WAT, 5.6 kg/h | [2]; Table II, 2 WAT, 1.12 kg/h | [3]; 2 WAT, 5.6 kg/h | [3]; 4 WAT, 5.6 kg/h | [4]; Table II, 2 WAT, 1.12 kg/h | [4]; Table II, 2 WAT, 5.6 kg/h | [4]; Table II, 4 WAT, 5.6 kg/h | [7]; 2 WAT, 5.6 kg/h | [7]; 4 WAT, 5.6 kg/h | [9]; 2 WAT, 1.12 kg/h | [9]; 4 WAT, 1.12 kg/h | [10]; 11.2 kg/h | [12]; Table I, 4 WAT, 5.6 kg/h | [12]; Table II, 2 WAT, 5.6 kg/h | [12]; Table II, 4 WAT, 1.12 kg/h | [13]; 2 WAT, 1.12 kg/h | [13]; 4 WAT, 0.28 kg/h | [13]; 4 WAT, 1.12 kg/h | [15]; Table II, 2 WAT, 1.12 kg/h | [15]; Table II, 4 WAT, 1.12 kg/h | [18]; 4 WAT, 5.6 kg/h | [19]; 2 WAT, 1.12 kg/h | [19]; 2 WAT, 5.6 kg/h | [19]; 4 WAT, 5.6 kg/h | [20]; 2 WAT, 5.6 kg/h | [20]; 4 WAT, 5.6 kg/h
4 (100% control): [17]; Table I, 4 WAT, 11.2 kg/h
2 (50-74% control): [2]; Table I, 4 WAT, 5.6 kg/h | [2]; Table I, 4 WAT, 11.2 kg/h | [2]; Table II, 2 WAT, 5.6 kg/h | [4]; Table I, 4 WAT, 5.6 kg/h | [4]; Table I, 4 WAT, 11.2 kg/h | [5]; Table I, 4 WAT, 5.6 kg/h | [5]; Table II, 2 WAT, 5.6 kg/h | [5]; Table II, 4 WAT, 5.6 kg/h | [9]; 2 WAT, 5.6 kg/h | [12]; Table I, 4 WAT, 11.2 kg/h | [12]; Table II, 4 WAT, 5.6 kg/h | [14]; 5.6 kg/h | [14]; 11.2 kg/h | [15]; Table I, 4 WAT, 5.6 kg/h | [15]; Table I, 4 WAT, 11.2 kg/h | [15]; Table II, 2 WAT, 5.6 kg/h | [16]; 5.6 kg/h | [16]; 11.2 kg/h
